US20230256094A1, “CANCER RADIOSENSITIZATION BY IN SITU FORMATION OF GOLD NANOPARTICLES AND/OR GOLD NANOCLUSTERS” (BOARD OF REGENTS, THE UNIVERSITY OF TEXAS SYSTEM, priority 2020, published 2023)

Key:
[1] = test system: 3T3 mouse fibroblast cells; experiment: MTS assay of radiosensitization after X-ray irradiation; format: cell-based; details: 0 Gy
Protocol: Our initial evaluation of radiosensitization via intracellular GNP formation was performed with 3T3 mouse fibroblast cells. […] Radiosensitization with intracellular GNC formation (i.e., delivery of Au^3+) was compared with pre-fabricated albumin-coated GNCs (Albumin-GNC) prepared according to work by Xie^46 and control cells without treatment via MTS assay (FIG. 3B).
3T3 cells were first incubated with either 1 mM of sodium chloroaurate or albumin-GNCs (0.1 mM Au^0)in cell culture media for 10 hours. Then, the cells including the nontreated control were irradiated with X-rays at dosages of 0, 4 and 6 Gy in the X-ray X-RAD 225 CX irradiator system (Precision).
In our future studies we will use a standard clonogenic survival assay for quantitation of the radiosensitization effect.

PANC1 pancreatic cancer [2] = experiment: NADP(H) assay after irradiation; format: cell-based, human; details: 24 hr post-irradiation
Protocol: FIG. 23 reports on a mechanistic study of radiosensitization quantifying total NADP through NADP assay measured at 0, 1, and 24 hours, resulting from 24 hour, 0.20 mM Au^3+ treatments (right four bars) compared against non-treated (left four bars) combined with either 0 Gy or 8 Gy x-ray irradiation. Treatments are in full cell media to PANC1 pancreatic cancer.
FIG. 24 reports on a mechanistic study of radiosensitization quantifying the ratio of NADP^+/NADPH through NADP assay measured at 0, 1, and 24 hours, resulting from 24 hour, 0.20 mM Au^3+ treatments (right) compared against non-treated (left) combined with either 0 Gy or 8 Gy x-ray irradiation. Treatments are in full cell media to PANC1 pancreatic cancer.
Further, we characterized the mechanisms of radiosensitization through (i) quantification of double stranded DNA breaks via y-H2AX Foci (FIG. 21), (ii) mitochondrial polarization via JC-1 assay (FIG. 22), (iii) NADP total (FIG. 23) and NADP:NADPH ratio (FIG. 24) via NADP(H) assay, and (iv) peroxidation production via TBARS assay (FIG. 25).

[3] = test system: pancreatic non-cancerous cells (MS1); experiment: Clonogenic assay after X-ray irradiation; format: cell-based; details: 0.1 mM, 24 hours, X-rays 0 to 8 Gy
Protocol: (§1) Radiosensitization due to intracellular GNC formation (i.e., delivery of Au^3+) was compared between cancerous and non-cancerous cells using a standard clonal assay. For radiosensitization, cells were incubated with 0.1 mM of buffered chloroauric acid in cell culture media for 24 hours. Then, the cells were lifted and plated in 30 mm culture dishes at optimized cell densities for observation of colony formation following irradiation with X-rays at dosages ranging from 0 to 8 Gy (XRAD SmART). […] The radiosensitization results correlated well with the fluorescence images showing greater production of GNCs by cancerous cells (FIG. 6A-6B). For LTPA pancreatic cancer cells the surviving fraction values decreased by a factor of 2.3x and 3.5x for radiation of 4 Gy and 6 Gy, respectively, in cells treated with gold atoms compared to untreated control (FIG. 6B). This relative decrease in surviving fraction is similar or better than previously reported values observed in cells treated with pre-synthetized GNPs. We believe that the observed improvement in radiation efficiency in killing cancer cells might be associated with a strong nuclear localization of in situ synthetized GNCs.

[4] = test system: LTPA pancreatic cancer cells; experiment: Clonogenic assay after X-ray irradiation; format: cell-based; details: 0.1 mM, 24 hours; for radiosensitization effect as compared to untreated control: cancer cells, X-rays 0 to 8 Gy
Protocol: as §1

PANC1 cells [5] = experiment: Clonogenic survival assay of radiosensitization; format: cell-based, human; details: 0.20 mM, 24 hrs
Protocol: FIG. 20 presents evidence of radiosensitization resulting from 24 hour 0.20 mM Au^3+ treatments (lower plot) compared against non-treated (upper plot) determined via clonogenic survival assay and in full cell media to PANC1 pancreatic cancer.
2.5. Evaluate radiosensitization efficacy and radiosensitization mechanisms for in situ synthetized GNCs. Based on the studies described in Sections 2.3-2.4, we selected the following conditions for radiosensitization studies in cell culture: 24 hr media conditioning by cells, 10% FBS (v/v) within, and 0.20 mM Au^3+ for 24 hrs.
A standard clonogenic assay was used to evaluate radiosensitization efficacy of intracellular synthetized GNC in PANC1 cells (FIG. 20). […] Dose enhancement factor at 10% surviving fraction (DEF10%) was calculated at 1.317 indicative of a strong radiosensitization in Au^3+ treated cells.

PANC1 pancreatic cancer [6] = experiment: JC-1 mitochondrial depolarization assay (cell viability); format: cell-based; details: 0.20-1.50 mM, 24 hour
Protocol: FIG. 19 reports cell viability as a function of 24 hour Au^3+ treatments at varied concentrations determined via JC-1 mitochondrial depolarization assay and in full cell media to PANC1 pancreatic cancer.
The JC-1 assay measures the charge potential of the mitochondria of cells through the fluorometric ratio of the JC-1 dye (ThermoFisher Scientific, Waltham, Mass.). JC-1 is a cationic carbocyanine dye that accumulates in mitochondria. The dye exists as a monomer at low concentrations and yields green fluorescence, similar to fluorescein. […] These characteristics make JC-1 a sensitive marker for mitochondrial membrane potential. In other words, mitochondrial depolarization is indicated by a decrease in the red/green fluorescence intensity ratio. Mitochondrial depolarization is an indicator of reduced cell viability.
(§2) 2.4. Characterize cytotoxicity of gold atom treatment. An MTS viability assay was used with 0-2.0 mM Au^3+ dose range. […] MTS assay was not usable at concentrations >0.75 mM Au^3+ due to intracellular formation of larger GNPs and their absorbance interfering with the MTS results. Therefore, at higher Au^3+ we switched to AO/PI live-dead staining (FIG. 15) and JC-1 mitochondrial depolarization assays (FIG. 19). JC-1 assay indicated cell viability ˜80% for concentrations between 0.20-1.50 mM Au^3+.

PANC1 cells [7] = experiment: MTS viability assay; format: cell-based
Protocol: as §2

[8] = test system: 8505C thyroid cancer and Nthy-Ori-3-1 normal thyroid cells; experiment: MTT assay of cell viability, thyroid cells; format: cell-based; details: 24 hour treatment, all concentrations
[9] = listed as buffered chloroauric acid

[Au+3].[Cl-].[Cl-].[Cl-].[Cl-].[H+] [Au^3+, chloroauric acid]
cell viability / cytotoxicity, treated vs untreated cells [1]: no difference in cell viability | cell viability / cytotoxicity, treated vs untreated cells ([1]; listed as chloroauric acid): not cytotoxic | NADP total lower than for non-treated cells (PANC1 pancreatic cancer [2]): ~43% | NADP:NADPH ratio larger than for non-treated cells (PANC1 pancreatic cancer [2]): 181% | radiosensitization in non-cancerous cells [3]: no radiosensitization | radiosensitization in non-cancerous cells [3, 9]: no significant radiosensitization | factor of decrease of surviving fraction compared to untreated control ([4]; 4 Gy): 2.3 x | factor of decrease of surviving fraction compared to untreated control ([4]; 6 Gy): 3.5 x | radiosensitization effect as compared to untreated control [4]: significant radiosensitization effect | radiosensitization effect as compared to untreated control [4, 9]: significantly greater radiosensitization effect | Dose enhancement factor at 10% surviving fraction (DEF10%) (PANC1 cells [5]): 1.317 | average surviving fraction (PANC1 cells [5]; 2 Gy): 47.3% | average surviving fraction (PANC1 cells [5]; 4 Gy): 7.3% | average surviving fraction (PANC1 cells [5]; 6 Gy): 2.2% | cell viability (JC-1) (PANC1 pancreatic cancer [6]): ~80% | impact on viability (MTS) (PANC1 cells [7]; 0.0-0.20 mM): no impacts on viability | cell viability (MTS) (PANC1 cells [7]; 0.75 mM): ~81% | viability of cancer cells compared with normal cells (MTT) [8]: significantly lower viability of cancer cells than normal cells
